Measured values published in publication PMC6522510 (Nature Communications, 2019).
Like-named read-outs stand apart in the source and are kept apart here.

Legend:
Parameters in all cases: species or system AML cell lines (8); Primary HTS, single concentration about 10 uM, Cell Titer Glo viability; log10 luminescence, per cent inhibition relative to cycloheximide control
Conditions in all cases: 72 h, relative to cycloheximide control, log10 luminescence, inhibitor
M07e = system: M07e
MV4-11 = system: MV4-11
CHRF288-11 = system: CHRF288-11
CMK = system: CMK
U937 = system: U937
MOLM-13 = system: MOLM-13
CMS = system: CMS
ML-2 = system: ML-2

SMILES	M07e %inh (M07e; M07e %inh, 10 µM) [%]	MV4-11 %inh (MV4-11; MV4-11 %inh, 10 µM) [%]	CHRF288-11 %inh (CHRF288-11; CHRF288-11 %inh, 10 µM) [%]	CMK %inh (CMK; CMK %inh, 10 µM) [%]	U937 %inh (U937; U937 %inh, 10 µM) [%]	MOLM-13 %inh (MOLM-13; MOLM-13 %inh, 10 µM) [%]	CMS %inh (CMS; CMS %inh, 10 µM) [%]	ML-2 %inh (ML-2; ML-2 %inh, 10 µM) [%]	M07e %inh (M07e) [%]	MV4-11 %inh (MV4-11) [%]	CHRF288-11 %inh (CHRF288-11) [%]	CMK %inh (CMK) [%]	U937 %inh (U937) [%]	MOLM-13 %inh (MOLM-13) [%]	CMS %inh (CMS) [%]	ML-2 %inh (ML-2) [%]
COc1cc2c(cc1O)CC[C@@H]1[C@@H]2CC[C@]2(C)[C@@H](O)CC[C@@H]12 [SJ000288002-4, 2-METHOXYESTRADIOL | 2-METHOXYESTRADIOL | PANZEM | PULMOLAR | 2-ME | 2-MEOE2 | 2ME2 | NSC-659853 | | 2-METHOXYESTRADIOL | 2-ME | 2-MEOE2 | 2ME2 | NSC-659853 | | 2-METHOXYESTRADIOL (2-MEOE2)]	111	99.75	60.77	133.7	95.83	91.74	122.6	66.58								
COc1cc2c(cc1O)CC[C@@H]1[C@@H]2CC[C@]2(C)[C@@H](O)CC[C@@H]12 [SJ000288002-5, 2-METHOXYESTRADIOL | 2-METHOXYESTRADIOL | PANZEM | PULMOLAR | 2-ME | 2-MEOE2 | 2ME2 | NSC-659853 | | 2-METHOXYESTRADIOL | 2-ME | 2-MEOE2 | 2ME2 | NSC-659853 | | 2-METHOXYESTRADIOL (2-MEOE2)]	94.34	76.13	61.44	118	80.21	80.44	96.86	56.77								
Cc1ccc(=O)n(-c2ccccc2)c1 [SJ000288087-4, PIRFENIDONE]									-1.785	8.387	10.42	-5.144	-2.099	2.774	4.387	-0.2811
CCCCCCCCCCCCCCSCC(=O)O [SJ000288209-4, TETRADECYLTHIOACETIC ACID]									1.198	-0.2387	-0.5942	-1.764	-2.154	-1.133	-0.2083	-0.6377
Clc1cnc(Oc2ccc(Oc3ncc(Cl)cc3Cl)cc2)c(Cl)c1 [SJ000288225-4, TCPOBOP]									1.992	0.7208	4.243	-2.209	-1.704	-2.278	-0.7867	1.606
C/C(=C\c1ccc(C(=O)O)cc1)c1ccc2c(c1)C(C)(C)CCC2(C)C [SJ000288227-4, TTNPB | TTNPB (AROTINOID ACID)]									3.996	20.2	0.3991	5.715	8.124	8.388	11.71	2.308
O=C1Nc2ccccc2/C1=C\c1c(Cl)[nH]c2ccccc12 [SJ000312180-2, CDK1 INHIBITOR]									105.1	76.6	68.22	109.3	78.83	82.19	93.89	57.06
COCC1=C(C(=O)O)N2C(=O)[C@@H](NC(=O)/C(=N\OC)c3csc(N)n3)[C@H]2SC1 [SJ000312312-2, CEFPODOXIME, FREE ACID| R-3763| U-76253 | CEFPODOXIME, FREE ACID| R-3763| U-76253 | (6R,7R)-7-((Z)-2-(2-AMINOTHIAZOL-4-YL)-2-(METHOXYIMINO)ACETAMIDO)-3-(METHOXYMETHYL)-8-OXO-5-THIA-1-AZABICYCLO[4.2.0]OCT-2-ENE-2-CARBOXYLIC ACID]									-1.66	-2.052	0.005285	34.96	-1.004	-1.275	-1.332	-0.4312
